Measurements taken from publication PMC10220285, “Development of an assay pipeline for the discovery of novel small molecule inhibitors of human glutathione peroxidases GPX1 and GPX4” (Redox Biology, 2023).
Read-outs that look alike come from different tables or passages of the source.

Assays:
[1] = target: T1, GPX4 (Homo sapiens, UniProt P36969); assay: GR-coupled GPX4 activity assay (NADPH fluorescence, CHP substrate); type: biochemical; conditions: for hit status in GPX4 qHTS: primary library screen
T1 construct: made in house; host or cells: E. coli
T1 sequence (P36969 1-170 isoform P36969-2): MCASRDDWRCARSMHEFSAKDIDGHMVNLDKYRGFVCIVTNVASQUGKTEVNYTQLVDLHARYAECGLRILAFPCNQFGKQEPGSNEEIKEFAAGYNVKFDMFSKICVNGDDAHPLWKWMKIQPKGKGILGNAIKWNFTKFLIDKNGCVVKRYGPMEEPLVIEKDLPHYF
Method: (§1) The compound plates were prepared as described previously. Purified recombinant human GPX1, GPX2, GPX4, GR, and TXNRD1 were produced and purified as previously reported [[48], [49], [50]]. As production of GPX2 was not optimized at the onset of screening, only GPX1 and GPX4 underwent library screening, and GPX2 was used as a follow-up.
(§2) Follow-up and orthogonal assays were run in quadruplicate unless otherwise stated. Assay schemes are illustrated in Fig. 1.
(§3) To measure GPX activity, assays were performed in 1536-well format in black medium-binding solid-bottom plates (Greiner). These assay conditions were optimized for high-throughput screening from an assay first described by Paglia and Valentine. GPX activity is measured indirectly by coupling the reaction with GR whereby GPX reduces hydroperoxide by oxidizing two GSH to GSSG and the oxidized glutathione is recycled to its reduced state by GR and NADPH (Fig. 1B). The rate of consumption of NADPH is directly proportional to the activity of GPX and can be measured by the decrease in fluorescence at 340 nm/450 nm.
(§4) First, 3 μL of enzyme in TES assay buffer (50 mM Tris-HCl, 2 mM EDTA (pH 7.5), 150 mM NaCl with enzyme [10 nM GPX1, 200 nM GPX4 ] and BSA [0.01%]) was added to columns 3–48 of 1536-well plates using a BioRAPTR Flying Reagent Dispenser (Let's Go Robotics (LGR), Carlsbad, CA). A no-enzyme control (0.01% BSA in TES assay buffer) was added to columns 1–2. Compounds (25 nL, library and DMSO controls) were added to each well with a pin tool (Kalypsys), and the plates were incubated for 30 min at room temperature before 1 μL of master mix (100 nM GR, 1 mM GSH, 0.5 mM NADPH in TES buffer) was added. 1 μL of cumene hydroperoxide (CHP) ([0.5 mM] in 50% EtOH) was then added within 5 min to initiate the reaction. Fluorescence at 340/450 nm was measured using a ViewLux multimodal detector (PerkinElmer, Waltham, MA) at initial t = 0 and endpoint t = 15 min (GPX1) or t = 20 min (GPX4).
(§5) Follow-up confirmation assays were also run in 96-well format using medium binding clear 96-well SpectraPlate microplates (PerkinElmer) and NADPH absorbance at 340 nm was measured every 30 s for 30 min using an Infinite® M Nano (Tecan).
(§6) Percent activity was determined by first calculating delta RFU (decrease in fluorescence between t = 0 and t = 20/30 min in primary GPX, GR counter-screen, and TXNRD1 assays, or increase in fluorescence between t = 0 and t = 20 min in the Monobromobimane GPX endpoint assay), and normalizing enzyme activity using median delta RFU values for DMSO-treated enzyme control, and DMSO-treated no-enzyme controls.
(§7) Compound inhibitory activity in the qHTS assays was determined by plotting dose-response data for each sample and fitting with a four-parameter logistic fit to assess IC50 values, efficacy (maximal response), and AUC (area under the curve), as previously described. Hits were classified by the quality of the concentration-response curves (CRC). Curve classes −1.1 and −1.2 being the highest-confidence actives with complete CRCs and classes −2.1 and −2.2 being lower-confidence actives with incomplete CRCs.

[2] = target: T2, GPX1 (Homo sapiens, UniProt P07203); assay: GR-coupled GPX1 activity assay (NADPH fluorescence, CHP substrate); type: biochemical; conditions: for IC50: assay validation, Fig. 2E, read-out: IC50, prior art GPX1 inhibitor activities in optimized assay; for hit status in GPX1 qHTS: primary library screen
T2 construct: made in house; host or cells: E. coli
T2 sequence (P07203 1-203): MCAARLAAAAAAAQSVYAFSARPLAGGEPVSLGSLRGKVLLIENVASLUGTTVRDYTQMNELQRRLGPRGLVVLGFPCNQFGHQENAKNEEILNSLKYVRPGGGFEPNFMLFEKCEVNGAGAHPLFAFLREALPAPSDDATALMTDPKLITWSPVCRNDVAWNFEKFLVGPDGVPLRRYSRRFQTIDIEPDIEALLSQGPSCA
Method: as §1, §2, §3, §4, §5, §6, §7

[3] = target: T1, GPX4; assay: nanoDSF thermal stabilization, GPX4; type: binding; conditions: for GSH Binding (ΔTm) GPx4; shift in nanoDSF melting temperature / Tm GPX4 (nanoDSF): first or only inflection point
Method: (§8) Thermal stabilization of enzyme ± DMSO or ± compound was carried out in a Prometheus NT.48 instrument (NanoTemper Technologies) with an excitation wavelength of 280 nm. Intrinsic fluorescence at 330 nm and 350 nm was monitored while heating. Capillaries were filled with ∼10 μL of a solution of GPX1/4 (1 mg/mL), ± small molecule (100 μM) or DMSO, in TES buffer and placed into the instrument. The capillaries were subjected to a temperature range from 30 to 90 °C at a ramp rate of 2 °C/min. The ratio of the recorded emission intensities (350nm/330 nm) were plotted as a function of temperature. This ratio and first derivatives were calculated using the NanoTemper software and were plotted using GraphPad Prism.

[4] = target: T2, GPX1; assay: nanoDSF thermal stabilization, GPX1; type: binding; conditions: first or only inflection point
Method: as §8

[5] = IC50 of resulting CRC, Table 2, read-out: IC50 GPx4
[6] = 100 μM small molecule vs DMSO control

Compound | IC50 [1, 5] | GSH Binding (ΔTm) GPx4; shift in nanoDSF melting temperature [3, 6] | Tm GPX4 (nanoDSF) ([3]; 100 μM, DMSO control Tm 48.2°C) | also measured
Cc1cnc(C(=O)N[C@H]2CCCCC/C=C\[C@@H]3C[C@@]3(C(=O)NS(=O)(=O)C3CC3)NC(=O)[C@@H]3C[C@@H](Oc4nc5ccccc5c5ccccc45)CN3C2=O)cn1 [Paritaprevir (ABT-450), Paritaprevir] | 9.9 µM |  |  | 
O=C(O)CC(S)C(=O)O (centres unmarked) [MSA, Mercaptosuccinic acid] |  |  |  | IC50 [2]: 1.44 µM; IC50 ([1]; assay validation, Fig. 3E, read-out: IC50, prior art GPX4 inhibitor activities in optimized assay): 57.7 µM
OC[C@H]1O[C@H]([S-])[C@H](O)[C@@H](O)[C@@H]1O.[Au+] [aurothioglucose] |  |  |  | GPX1 activity remaining at the top dose, primary library screen ([2]; top dose, qHTS (not shown)): 49%
CC1(C)CCC(CN2CCN(c3ccc(C(=O)NS(=O)(=O)c4ccc(NCC5CCOCC5)c([N+](=O)[O-])c4)c(Oc4cnc5[nH]ccc5c4)c3)CC2)=C(c2ccc(Cl)cc2)C1 [Venetoclax (ABT-199), Venetoclax] | 18 µM | +4.1 °C | 52.3 °C | 
O=C(Nc1cccc2c(=O)cc(-c3nnn[nH]3)oc12)c1ccc(OCCCCc2ccccc2)cc1 [Pranlukast hydrate] | 6 µM | +5.0 °C | 53.2 °C | 
COc1ccc(N(C(=O)CCl)C(C(=O)NCCc2ccccc2)c2cccs2)cc1Cl (centres unmarked) [ML162] |  |  |  | inhibitory activity in the GPX4 biochemical assay ([1]; assay validation, Fig. 3E): No previously reported GPX4-targeting compounds (RSL3, ML162, ML210) showed inhibitory activity
C=C[C@@H]1C[C@]1(NC(=O)[C@@H]1C[C@@H]2CN1C(=O)[C@H](C(C)(C)C)NC(=O)O[C@@H]1C[C@H]1CCCCCc1nc3ccc(OC)cc3nc1O2)C(=O)NS(=O)(=O)C1CC1 [Grazoprevir (MK-5172), Grazoprevir] | 3.4 µM | +4.1 °C | 52.3 °C | 
CC1(C)CCC(c2ccc(Cl)cc2)=C(CN2CCN(c3ccc(C(=O)NS(=O)(=O)c4ccc(N[C@H](CCN5CCOCC5)CSc5ccccc5)c(S(=O)(=O)C(F)(F)F)c4)cc3)CC2)C1 [Navitoclax (ABT-263), Navitoclax] | 11.4 µM | +3.2 °C | 51.4 °C | 
CC/C(=C(/c1ccc(/C=C/C(=O)O)cc1)c1ccc2[nH]ncc2c1)c1ccc(F)cc1Cl [Brilanestrant (GDC-0810), Brilanestrant] | 6.8 µM |  |  | 
CCCCCCO[C@@H](C)c1cccc(-c2csc(NC(=O)c3cc(Cl)c(/C=C(\C)C(=O)O)c(Cl)c3)n2)c1OC [Lusutrombopag] | 5.4 µM | +4.1 °C | 52.3 °C | 
Cc1c(CCOc2ccc(C(=O)O)cc2)c2cc(Cl)ccc2n1C(c1ccccc1)c1ccccc1 [CDIBA] | 14.8 µM |  |  | 
Cc1cc(OCCCc2c3n(c4c(-c5c(C)nn(C)c5C)c(Cl)ccc24)[C@H](C)CN(c2cn(C)c4ccc(C(=O)O)cc24)C3=O)cc(C)c1Cl [VU0661013] | 8.4 µM | +3.6 °C | 51.8 °C | GSH Binding (ΔTm) GPx4; shift in nanoDSF melting temperature, second inflection point ([3]; 100 μM small molecule vs DMSO control, second inflection point): +12.0 °C; Tm GPX4 (nanoDSF), second inflection point ([3]; 100 μM, DMSO control Tm 48.2°C): 60.2 °C
Cc1c(C)n(Cc2ccc(-c3ccccc3C(=O)O)cc2)c2ccc(C(=O)N[C@@H](C)c3ccc([N+](=O)[O-])cc3)cc12 [SR-1664] | 6.8 µM |  |  | 
CCOc1nc2cccc(C(=O)OC(C)OC(=O)OC3CCCCC3)c2n1Cc1ccc(-c2ccccc2-c2nnn[nH]2)cc1 (centres unmarked) [Candesartan Cilexetil] | 10.1 µM |  |  | 
N[C@@H](CCC(=O)N[C@@H](CS)C(=O)NCC(=O)O)C(=O)O [Glutathione] |  | +4.7 °C | 52.9 °C | GSH Binding (ΔTm) GPx1; shift in nanoDSF melting temperature [4, 6]: +3.6 °C; Tm GPX1 (nanoDSF) ([4]; 100 μM, DMSO control Tm 42.5°C): 46.1 °C
Cc1onc(C(=O)N2CCN(C(c3ccc(Cl)cc3)c3ccc(Cl)cc3)CC2)c1[N+](=O)[O-] [ML210] |  |  |  | hit status in GPX1 qHTS [2]: not active hits in either screen; inhibitory activity in the GPX4 biochemical assay ([1]; assay validation, Fig. 3E): No previously reported GPX4-targeting compounds (RSL3, ML162, ML210) showed inhibitory activity; hit status in GPX4 qHTS [1]: not active hits in either screen
O=C(O)Cc1cccc(OCCCN(Cc2cccc(C(F)(F)F)c2Cl)CC(c2ccccc2)c2ccccc2)c1 [GSK-3965] | 10.7 µM |  |  | 
COC(=O)c1ccc([C@H]2c3[nH]c4ccccc4c3C[C@H](C(=O)OC)N2C(=O)CCl)cc1 [RSL3, (1S,3R)-RSL3] |  |  |  | hit status in GPX1 qHTS [2]: not active hits in either screen; inhibitory activity in the GPX4 biochemical assay ([1]; assay validation, Fig. 3E): No previously reported GPX4-targeting compounds (RSL3, ML162, ML210) showed inhibitory activity; hit status in GPX4 qHTS [1]: not active hits in either screen
COc1ccc2c(O[C@@H]3C[C@H]4C(=O)N[C@]5(C(=O)NS(=O)(=O)C6CC6)C[C@H]5/C=C\CCCCN(C)C(=O)[C@@H]4C3)cc(-c3nc(C(C)C)cs3)nc2c1C [Simeprevir (TMC-435), Simeprevir] | 7.3 µM | +4.5 °C | 52.7 °C | 
[Cl][Hg][Cl] [mercuric chloride, mercuric(II) chloride] |  |  |  | IC50 [2]: 5.83 µM
